Tested on: Diabrotica balteata
Experiment: Activity against Diabrotica balteata (sprayed maize seedlings)
Type: in vivo
Conditions: 12.5 ppm, spray on maize seedlings, second-stage larvae, after 6 days; b227: good activity corresponding to a mortality of at least 50 to 60%
Experimental: Maize seedlings are sprayed with an aqueous emulsion spray liquor which comprises 12.5 ppm of active compound and, after the spray coating has dried on, populated with 10 larvae of the second stage of Diabrotica balteata and then introduced into a plastic container. After 6 days, the reduction in the population in percent (% activity) is determined by comparing the dead larvae between the treated and the untreated plants.

SMILES: CCC(C)C1OC2(C=CC1C)CC1CC(CC=C(C)C(OC3CC(OC)C(OC4CC(OC)C(C)(NC=O)C(C)O4)C(C)O3)C(C)C=CC=C3COC4C(O)C(C)=CC(C(=O)O1)C34O)O2 (stereo not shown) [Table A8]
- activity in this test (in words): good activity

Reference: patent publication US7687470B2, “Avermectin and avermectin monosaccharide substituted in the 4″- and 4″ position respectively” (Syngenta Crop Protection, Inc., priority 2005, dated 2010)
